Assay results: patent publication US9624247B2, “Pyrazolo-pyrrolidin-4-one derivatives as bet inhibitors and their use in the treatment of disease” (NOVARTIS AG, priority 2013, dated 2017)
pIC50: −log10 of the molar value.

Key:
MV-4-11 cells = assay: Cell growth inhibition assay (CellTiter-Glo), MV-4-11; type: cell-based, human; details: MV-4-11, 4 days; for GI50: Homo sapiens, MV4-11, 96 h, half-maximal growth inhibition; for MV-4-11 TGI: total growth inhibition
Procedure: (§1) Cell Growth Inhibition Assay
(§2) The human leukemia cell lines MV-4-11, THP-1 and K-562 were employed to characterize the effect of BET inhibitors on cellular proliferation and viability. Cells were obtained from the American Type Culture Collection (ATCC) and cultured at 37° C. in a humidified 5% CO2 incubator in the following media: MV-4-11: DMEM high glucose (Animed #1-26F01-I), 10% FCS (Animed #2-01F26-I), 4 mM L-Glutamine (Animed #5-10K50), 1 mM Sodium Pyruvate (Animed #G03625P), lx Penicillin-Streptomycin (Animed #F12478P); K-562: Iscove's MEM (Animed #1-28F16-I), 10% FCS (Animed #2-01F26-I), 4 mM L-Glutamine (Animed #5-10K50), 1× Penicillin-Streptomycin (Animed #F12478P); THP-1: RPMI-1640 (Animed #1-41F01-I), 10% FCS (Animed #2-01F26-I), 2 mM L-Glutamine (Animed #5-10K50), 10 mM HEPES (Animed #5-31F100), 1 mM Sodium Pyruvate (Animed #G03625P), 1× Penicillin-Streptomycin (Animed #F12478P). The AML lines MV-4-11 and THP-1 are very sensitive to BET inhibitors and show massive cell death upon BET inhibition (Zuber et al., Nature, 478 (2011), 524-8). Compound-mediated suppression of cell proliferation/viability was assessed by quantification of cellular ATP levels using the CellTiter-Glo (CTG) reagent (Promega). Briefly, cells were seeded in 20 μl fresh medium into 384-well plates, followed by addition of 5 μl medium containing compound dilutions at 5-fold their final intended concentration. Dose-response effects were assessed by 3-fold serial dilutions of the test compound, starting at 10 μM. Following incubation of the cells for 4 days at 37° C. and 5% CO2, the effect of inhibitors on cell viability was quantified following addition of 20 μl CTG and luminescence quantification (integration time: 100 ms) as per vendor manual, using a correspondingly equipped Tecan M200 multi-mode platereader (TECAN, Switzerland). For data analysis, the assay background value determined in wells containing medium, but no cells, was subtracted from all data points. To enable differentiation of cytotoxic from cytostatic compounds, the number of viable cells is assessed relative to that observed at the time of compound addition using a separate cell plate (day 0). The effect of a particular test compound concentration on cell proliferation/viability is expressed as percentage of the background- and day 0-corrected luminescence reading obtained for cells treated with vehicle only (DMSO, 0.1% final concentration), which is set as 100%, whereas that luminescence reading for wells containing medium is set as −100%. Compound concentrations leading to half-maximal (IC50) and total growth inhibition (TGI) were determined using standard four parameter curve fitting.

BRD2 (His-Brd2(60-472)) = BRD2 (His-Brd2(60-472)) (Homo sapiens (Human), UniProt P25440); assay: TR-FRET in-vitro binding assay for BRD2; details: acetyl-histone H4 peptide
Chain of BRD2 (His-Brd2(60-472)) (P25440 60-472): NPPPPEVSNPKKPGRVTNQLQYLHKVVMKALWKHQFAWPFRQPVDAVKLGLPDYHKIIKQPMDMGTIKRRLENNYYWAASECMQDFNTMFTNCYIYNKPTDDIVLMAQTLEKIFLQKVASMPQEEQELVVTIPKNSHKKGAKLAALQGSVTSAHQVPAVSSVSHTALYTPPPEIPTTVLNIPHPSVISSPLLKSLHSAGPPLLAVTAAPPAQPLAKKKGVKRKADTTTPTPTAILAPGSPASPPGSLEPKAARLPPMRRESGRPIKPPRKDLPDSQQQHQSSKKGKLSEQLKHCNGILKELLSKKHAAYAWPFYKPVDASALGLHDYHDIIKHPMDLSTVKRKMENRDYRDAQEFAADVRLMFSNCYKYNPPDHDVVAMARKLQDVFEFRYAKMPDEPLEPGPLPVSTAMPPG
Procedure: (§3) TR-FRET In-Vitro Binding Assays for BRD2, BRD3, and BRD4:
(§4) All assays were performed in 384 well microtiter plates. Each assay plate contained 8-point serial dilutions for 40 test compounds, plus 16 high- and 16 low controls. Liquid handling and incubation steps were done on an Innovadyne Nanodrop Express equipped with a robotic arm (Thermo CatX, Perkin Elmer/Caliper Twister II) and an incubator (Liconic STX40, Thermo Cytomat 2C450). The assay plates were prepared by addition of 50 nl per well of compound solution in 90% DMSO HummingBird nanodispenser (Zinsser Analytic). The assay was started by stepwise addition of 4.5 μl per well of bromo domain protein (50 mM HEPES, pH 7.5, 0.005% Tween20, 0.1% BSA, 50 mM NaCl, 45 nM His-Brd2(60-472) or 45 nM His-Brd3(20-477) or 45 nM His-Brd4(44-477) all proteins produced in-house) and 4.5 μl per well of peptide solution (50 mM HEPES, pH 7.5, 0.005% Tween20, 0.1% BSA, 50 mM NaCl, 60 nM acetyl-histone H4 (AcK 5, 8, 12, 16) (Biosyntan GmbH)). Reactions were incubated at 30° C. for 35 minutes. […] After 35 minutes incubation at 30° C., plates were measured in a Perkin Elmer EnVision multilabel reader. Concentrations causing 50% inhibition (IC50 values) were determined from percent inhibition values at different compound concentrations by non-linear regression analysis.
(§5) Preparation of Compound Dilutions
(§6) Test compounds were dissolved in DMSO (10 mM) and transferred into 1.4 mL flat bottom or V-shaped Matrix tubes carrying a unique 2D matrix. The stock solutions were stored at […] if not used immediately. For the test procedure the vials were defrosted and identified by a scanner whereby a working sheet was generated that guided the subsequent working steps. Compound dilutions were made in 96 well plates. This format enabled the assay of maximally 40 individual test compounds at 8 concentrations (single points) including 4 reference compounds, if desired (known BET inhibitors from the prior art, for this and other assays of the type disclosed herein). The dilution protocol included the production of “pre-dilution plates”, “master plates” and “assay plates”.
(§7) Pre-dilution plates: 96 polypropylene well plates were used as pre-dilution plates. A total of 4 pre-dilution plates were prepared including 10 test compounds each on the plate positions A1-A10, one standard compound at A11 and one DMSO control at A12. All dilution steps were done on a HamiltonSTAR robot.
(§8) Master plates: 30 μL of individual compound dilutions including standard compound and controls of the 4 “pre-dilution plates” were transferred into a 384 “master plate” including the following concentrations 10000, 3003, 1000, 300, 100, 30, 10 and 3 μM, respectively in 90% of DMSO.
(§9) Assay plates: Identical “assay plates” were then prepared by pipetting 50 nL each of compound dilutions of the “master plates” into 384-well “assay plates” by means of a HummingBird 384-channel dispenser. These plates were used directly for the assay which was performed in a total volume of 13.55 μL. This led to a final compound concentration of 37, 11, 3.7, 1.1, 0.37, 0.11, 0.037 and 0.011 μM and a final DMSO concentration of 0.37% in the assay.

BRD4 (His-Brd4(44-477)) = BRD4 (His-Brd4(44-477)) (Homo sapiens (Human), UniProt O60885); assay: TR-FRET in-vitro binding assay for BRD4; details: acetyl-histone H4 peptide
Procedure: as §3, §4, §5, §6, §7, §8, §9

BRD3 (His-Brd3(20-477)) = BRD3 (His-Brd3(20-477)) (Homo sapiens (Human), UniProt Q15059); assay: TR-FRET in-vitro binding assay for BRD3; details: acetyl-histone H4 peptide
Chain of BRD3 (His-Brd3(20-477)) (Q15059 20-477): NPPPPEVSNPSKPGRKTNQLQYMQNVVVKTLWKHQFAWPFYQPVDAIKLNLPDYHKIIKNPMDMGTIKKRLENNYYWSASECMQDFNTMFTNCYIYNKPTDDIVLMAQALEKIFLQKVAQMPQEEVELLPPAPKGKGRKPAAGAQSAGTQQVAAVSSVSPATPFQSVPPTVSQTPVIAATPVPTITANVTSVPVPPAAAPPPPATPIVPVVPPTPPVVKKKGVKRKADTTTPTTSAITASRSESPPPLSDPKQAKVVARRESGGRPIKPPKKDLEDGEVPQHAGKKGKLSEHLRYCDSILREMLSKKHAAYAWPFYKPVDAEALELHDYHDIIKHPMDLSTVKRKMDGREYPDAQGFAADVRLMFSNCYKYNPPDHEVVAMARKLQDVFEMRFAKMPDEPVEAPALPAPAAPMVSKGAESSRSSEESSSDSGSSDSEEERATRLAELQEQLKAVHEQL
Procedure: as §3
All assays were performed in 384 well microtiter plates. Each assay plate contained 8-point serial dilutions for 40 test compounds, plus 16 high- and 16 low controls. Liquid handling and incubation steps were done on an Innovadyne Nanodrop Express equipped with a robotic arm (Thermo CatX, Perkin Elmer/Caliper Twister II) and an incubator (Liconic STX40, Thermo Cytomat 2C450). The assay plates were prepared by addition of 50 nl per well of compound solution in 90% DMSO HummingBird nanodispenser (Zinsser Analytic). […] Reactions were incubated at 30° C. for 35 minutes. […] After 35 minutes incubation at 30° C., plates were measured in a Perkin Elmer EnVision multilabel reader.
as §5, §6, §7
(§10) These plates were used directly for the assay which was performed in a total volume of 13.55 μL.

K-562 cells = assay: Cell growth inhibition assay (CellTiter-Glo), K-562; type: cell-based, human; details: K-562, 4 days; for GI50: Homo sapiens, K562, 96 h, half-maximal growth inhibition; for K-562 TGI: total growth inhibition
Procedure: as §1, §2

THP-1 cells = assay: Cell growth inhibition assay (CellTiter-Glo), THP-1; type: cell-based, human; details: THP-1, 4 days; for GI50: Homo sapiens, 96 h, half-maximal growth inhibition; for THP-1 TGI: total growth inhibition
Procedure: as §1, §2

[1] = molecular target: CREBBP bromodomain (His-CREBBP(1081-1197)) (Homo sapiens (Human), UniProt Q92793); assay: AlphaScreen in-vitro binding assay for CREBBP; details: AlphaScreen, acetyl-histone H4 peptide; read-out: CREBBP IC50
Chain of CREBBP bromodomain (His-CREBBP(1081-1197)) (Q92793 1081-1197): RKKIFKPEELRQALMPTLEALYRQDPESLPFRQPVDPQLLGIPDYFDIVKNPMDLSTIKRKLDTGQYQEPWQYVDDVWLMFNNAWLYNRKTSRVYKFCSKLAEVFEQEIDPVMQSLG
Procedure: AlphaScreen In-Vitro Binding Assay for CREBBP
In order to assess bromodomain selectivity, we set up a binding assay using the bromodomain encoded by the CREBBP gene. […] Reactions were incubated at 30° C. for 35 minutes. Subsequently 4.5 μl per well detection mix (50 mM HEPES, pH 7.5, 0.005% Tween20, 0.02% BSA, 150 mM NaCl, 45 μg/ml Ni-chelate acceptor beads, 45 μg/ml streptavidin-donor beads) (Perkin Elmer)) were added. After 60 minutes incubation at room temperature, plates were measured in a Perkin Elmer EnVision multilabel reader. IC50 values were determined from percent inhibition values at different compound concentrations by non-linear regression analysis.
as §5, §6, §7, §10

Compound | GI50 (MV-4-11 cells) | MV-4-11 TGI (MV-4-11 cells) | pIC50 (BRD2 (His-Brd2(60-472))) | pIC50 (BRD4 (His-Brd4(44-477))) | pIC50 (BRD3 (His-Brd3(20-477))) | GI50 (K-562 cells) | K-562 TGI (K-562 cells) | GI50 (THP-1 cells) | THP-1 TGI (THP-1 cells) | pIC50 [1]
COCCn1nc(C2CC2)c2c1[C@@H](c1ccc(Cl)cc1)N(c1cc(C)c3nnc(C)n3c1)C2=O [Example 15, (R)-6-(4-chlorophenyl)-3-cyclopropyl-5-(3,8-dimethyl-[1,2,4]triazolo[4,3-a]pyridin-6-yl)-1-(2-methoxyethyl)-5,6-dihydropyrrolo[3,4-c]pyrazol-4(1H)-one] | 0.00241 µM | 0.00579 µM | 7.70 | 7.74 | 7.80 | 0.0265 µM | >10 µM | 0.00642 µM | 0.0139 µM | 5.21
Cc1cc(N2C(=O)c3c(C4CC4)nn(C)c3[C@H]2c2ccc(Cl)cc2)cn2c(CF)nnc12 [Example 17, (R)-6-(4-chlorophenyl)-3-cyclopropyl-5-(3-(fluoromethyl)-8-methyl-[1,2,4]triazolo-[4,3-a]pyridin-6-yl)-1-methyl-5,6-dihydropyrrolo[3,4-c]pyrazol-4(1H)-one] | 0.00428 µM | 0.009765 µM | 7.96 | > 7.96 | > 7.96 | 0.0631 µM | >10 µM | 0.00968 µM | 0.0247 µM | 5.01
Cc1cc(N2C(=O)c3c(C4CC4)nn(C[C@@H](O)C(F)(F)F)c3[C@H]2c2ccc(Cl)cc2)cn2c(C)nnc12 [Example 19, (R)-6-(4-chlorophenyl)-3-cyclopropyl-5-(3,8-dimethyl-[1,2,4]triazolo[4,3-a]pyridin-6-yl)-1-((R)-3,3,3-trifluoro-2-hydroxypropyl)-5,6-dihydropyrrolo[3,4-c]pyrazol-4(1H)-one] | 0.00523 µM | 0.0113 µM | 7.54 | 7.64 | 7.60 | 0.0584 µM | >10 µM | 0.0147 µM | 0.0366 µM | 5.03
Cc1cc(N2C(=O)c3c(C4CC4)nn(C[C@H](O)C(F)(F)F)c3[C@H]2c2ccc(Cl)cc2)cn2c(C)nnc12 [Example 20, (R)-6-(4-chlorophenyl)-3-cyclopropyl-5-(3,8-dimethyl-[1,2,4]triazolo[4,3-a]pyridin-6-yl)-1-((S)-3,3,3-trifluoro-2-hydroxypropyl)-5,6-dihydropyrrolo[3,4-c]pyrazol-4(1H)-one] | 0.00647 µM | 0.0161 µM | 7.89 | 7.82 | 7.92 | 0.096 µM | >10 µM | 0.0209 µM | 0.0447 µM | 5.10
Cc1cc(N2C(=O)c3c(C4CC4)nn(-c4ccnn4C)c3C2c2ccc(Cl)cc2)cc2c1nnn2C (stereo not drawn) [Example 21, 6-(4-chlorophenyl)-3-cyclopropyl-5-(1,4-dimethyl-1H-benzo[d][1,2,3]triazol-6-yl)-1-(1-methyl-1H-pyrazol-5-yl)-5,6-dihydropyrrolo[3,4-c]pyrazol-4(1H)-one] | 0.0135 µM | 0.02725 µM | 7.51 | 7.77 | 7.64 | 0.0788 µM | >10 µM | 0.0223 µM | 0.04445 µM | 5.18
COc1cc(N2C(=O)c3c(C4CC4)nn(C)c3C2c2ccc(Cl)cc2)cn2c(C(F)F)nnc12 (stereo not drawn) [Example 22, 6-(4-chlorophenyl)-3-cyclopropyl-5-(3-(difluoromethyl)-8-methoxy-[1,2,4]triazolo-[4,3-a]pyridin-6-yl)-1-methyl-5,6-dihydropyrrolo[3,4-c]pyrazol-4(1H)-one] | 0.267 µM | 0.574 µM | 6.68 | 6.89 | 6.64 | 1.18 µM | >10 µM | 0.814 µM | 1.33 µM | < 4.43
